The structures appear in SMILES notation. Activity calls are given as the source filed them. The rule behind the calls is not given here.

The species named for series [1] is Homo sapiens. The series is described as follows: Inhibition of IL-6 binding to human recombinant soluble IL-6R incubated for 2 hrs by solid phase ligand binding assay.
Series [2] deals with Hep 3B2. The series is described as follows: Inhibition of IL-6-induced IL-1beta gene expression in human Hep3B cells pre-incubated for 1 hr before IL-6 stimulation for 6 hrs by RT-PCR method. Format: functional, cell-based.
For series [3], the target named is Tyrosine-protein kinase JAK2 (Homo sapiens) (UniProt O60674). The series is described as follows: Inhibition of IL-6-induced JAK2 phosphorylation at Tyr1007/1008 residues in human U266 cells at 10 and 20 uM pre-incubated for 1 hr before IL-6 stimulation for 10 to 15 mins by Western blot analysis. In kind it is cell-based.
In series [4] the target is Signal transducer and activator of transcription 3 (Homo sapiens) (UniProt P40763). Nature of the series: Inhibition of IL-6-induced pSTAT3 nuclear translocation in human U266 cells at 20 uM pre-incubated for 1 hr before IL-6 stimulation for 30 mins by DAPI staining based immunofluorescence microscopy. Format: cell-based.
Series [5] concerns Hep 3B2. The series is described as follows: Inhibition of IL-6-induced CRP gene expression in human Hep3B cells pre-incubated for 1 hr before IL-6 stimulation for 6 hrs by RT-PCR method. Format: functional, cell-based.
The target of series [6] is Signal transducer and activator of transcription 3 (Homo sapiens) (UniProt P40763). Nature of the series: Inhibition of IL6-induced STAT3 phosphorylation in human Hep3B cells incubated for 12 hrs in presence of IL6 by luciferase reporter gene assay. In kind it is cell-based. A general note: Reporter assays use an easily measured gene product as a stand-in for the process of interest.

The target is the same in series [7]. Nature of the series: Inhibition of IL-6-induced STAT3 phosphorylation at Tyr 705 residue in human U266 cells at 10 to 20 uM pre-incubated for 1 hr before IL-6 stimulation for 15 mins by Western blot analysis. Format: cell-based. Background: A western blot detects proteins with antibodies after separation by electrophoresis.
The subject of series [8] is Hep 3B2. Nature of the series: Inhibition of IL-6-induced ICAM1 gene expression in human Hep3B cells pre-incubated for 1 hr before IL-6 stimulation for 6 hrs by RT-PCR method. In kind it is functional, cell-based.
The test system of series [9] is Hep 3B2. Nature of the series: Cytotoxicity against human Hep3B cells assessed as cell viability at 1 to 20 uM incubated for 24 hrs by MTT assay. Format: cell-based. Particulars: hep 3b2, 24 h.
Series [10] deals with Signal transducer and activator of transcription 3 (Homo sapiens) (UniProt P40763). Nature of the series: Inhibition of IL-6-induced pSTAT3 nuclear translocation in human Hep3B cells at 10 and 20 uM pre-incubated for 1 hr before IL-6 stimulation for 30 mins by DAPI staining based immunofluorescence microscopy. In kind it is cell-based.
Series [11] has as its target T1, Interleukin-6 receptor subunit beta (Homo sapiens) (UniProt P40189).
T1 sequence (whole entry): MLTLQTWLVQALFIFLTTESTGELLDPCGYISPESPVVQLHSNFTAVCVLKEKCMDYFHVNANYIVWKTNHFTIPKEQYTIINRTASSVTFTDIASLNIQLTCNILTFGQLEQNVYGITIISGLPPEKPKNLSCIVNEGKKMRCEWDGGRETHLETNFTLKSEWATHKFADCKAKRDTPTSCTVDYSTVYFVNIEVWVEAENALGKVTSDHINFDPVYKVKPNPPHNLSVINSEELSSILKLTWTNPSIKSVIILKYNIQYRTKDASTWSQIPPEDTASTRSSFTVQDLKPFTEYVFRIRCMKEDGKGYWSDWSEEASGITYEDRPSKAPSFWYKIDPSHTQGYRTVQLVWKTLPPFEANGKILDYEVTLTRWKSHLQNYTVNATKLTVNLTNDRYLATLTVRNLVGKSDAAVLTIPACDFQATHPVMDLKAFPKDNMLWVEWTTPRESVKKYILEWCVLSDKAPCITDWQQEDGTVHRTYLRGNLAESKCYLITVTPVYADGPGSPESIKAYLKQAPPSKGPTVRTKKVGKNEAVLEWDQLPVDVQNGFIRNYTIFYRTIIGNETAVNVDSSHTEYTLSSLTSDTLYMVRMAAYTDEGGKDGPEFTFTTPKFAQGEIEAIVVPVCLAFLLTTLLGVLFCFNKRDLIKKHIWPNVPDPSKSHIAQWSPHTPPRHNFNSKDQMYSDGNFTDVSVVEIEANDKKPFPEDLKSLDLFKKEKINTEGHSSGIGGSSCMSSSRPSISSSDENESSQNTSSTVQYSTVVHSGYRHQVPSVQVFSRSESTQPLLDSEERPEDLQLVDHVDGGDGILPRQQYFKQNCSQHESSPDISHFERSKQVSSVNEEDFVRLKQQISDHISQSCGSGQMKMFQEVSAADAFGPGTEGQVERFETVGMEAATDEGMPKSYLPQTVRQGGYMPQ
Nature of the series: Inhibition of IL-6-induced gp130 phosphorylation in human U266 cells at 10 and 20 uM pre-incubated for 1 hr before IL-6 stimulation for 10 to 15 mins by Western blot analysis. Format: cell-based.

Series [12] is filed under the species Homo sapiens. Nature of the series: Inhibition of IL-6-induced ERK phosphorylation at Tyr202/204 residues in human U266 cells at 10 to 20 uM pre-incubated for 1 hr before IL-6 stimulation for 10 to 15 mins by Western blot analysis. In kind it is cell-based.
For series [13], the system named is Hep 3B2. The series is described as follows: Inhibition of IL-6-induced SOCS3 gene expression in human Hep3B cells pre-incubated for 1 hr before IL-6 stimulation for 6 hrs by RT-PCR method. In kind it is functional, cell-based.

Chain of Signal transducer and activator of transcription 3 (Homo sapiens) (P40763 whole entry): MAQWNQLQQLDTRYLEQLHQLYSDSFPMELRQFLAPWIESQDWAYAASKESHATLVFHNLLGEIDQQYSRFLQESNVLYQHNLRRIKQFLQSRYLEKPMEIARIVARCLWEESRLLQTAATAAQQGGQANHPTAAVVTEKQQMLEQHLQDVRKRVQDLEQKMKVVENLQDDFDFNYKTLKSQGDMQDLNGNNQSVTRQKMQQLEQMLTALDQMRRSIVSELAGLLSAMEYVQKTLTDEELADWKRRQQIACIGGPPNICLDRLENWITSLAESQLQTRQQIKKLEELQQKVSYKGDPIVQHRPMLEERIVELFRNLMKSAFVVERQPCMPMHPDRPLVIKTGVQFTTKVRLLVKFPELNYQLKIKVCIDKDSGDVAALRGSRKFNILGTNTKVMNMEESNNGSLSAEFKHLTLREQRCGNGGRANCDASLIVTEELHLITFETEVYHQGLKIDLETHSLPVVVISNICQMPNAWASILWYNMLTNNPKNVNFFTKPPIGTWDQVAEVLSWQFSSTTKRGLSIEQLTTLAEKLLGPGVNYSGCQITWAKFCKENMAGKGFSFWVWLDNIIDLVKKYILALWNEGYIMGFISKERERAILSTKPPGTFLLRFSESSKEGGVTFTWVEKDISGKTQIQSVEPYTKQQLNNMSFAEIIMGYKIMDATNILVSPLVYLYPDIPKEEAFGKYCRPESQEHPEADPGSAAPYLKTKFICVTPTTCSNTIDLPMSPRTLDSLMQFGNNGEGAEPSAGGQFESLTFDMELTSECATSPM
Chain of Tyrosine-protein kinase JAK2 (Homo sapiens) (O60674 whole entry): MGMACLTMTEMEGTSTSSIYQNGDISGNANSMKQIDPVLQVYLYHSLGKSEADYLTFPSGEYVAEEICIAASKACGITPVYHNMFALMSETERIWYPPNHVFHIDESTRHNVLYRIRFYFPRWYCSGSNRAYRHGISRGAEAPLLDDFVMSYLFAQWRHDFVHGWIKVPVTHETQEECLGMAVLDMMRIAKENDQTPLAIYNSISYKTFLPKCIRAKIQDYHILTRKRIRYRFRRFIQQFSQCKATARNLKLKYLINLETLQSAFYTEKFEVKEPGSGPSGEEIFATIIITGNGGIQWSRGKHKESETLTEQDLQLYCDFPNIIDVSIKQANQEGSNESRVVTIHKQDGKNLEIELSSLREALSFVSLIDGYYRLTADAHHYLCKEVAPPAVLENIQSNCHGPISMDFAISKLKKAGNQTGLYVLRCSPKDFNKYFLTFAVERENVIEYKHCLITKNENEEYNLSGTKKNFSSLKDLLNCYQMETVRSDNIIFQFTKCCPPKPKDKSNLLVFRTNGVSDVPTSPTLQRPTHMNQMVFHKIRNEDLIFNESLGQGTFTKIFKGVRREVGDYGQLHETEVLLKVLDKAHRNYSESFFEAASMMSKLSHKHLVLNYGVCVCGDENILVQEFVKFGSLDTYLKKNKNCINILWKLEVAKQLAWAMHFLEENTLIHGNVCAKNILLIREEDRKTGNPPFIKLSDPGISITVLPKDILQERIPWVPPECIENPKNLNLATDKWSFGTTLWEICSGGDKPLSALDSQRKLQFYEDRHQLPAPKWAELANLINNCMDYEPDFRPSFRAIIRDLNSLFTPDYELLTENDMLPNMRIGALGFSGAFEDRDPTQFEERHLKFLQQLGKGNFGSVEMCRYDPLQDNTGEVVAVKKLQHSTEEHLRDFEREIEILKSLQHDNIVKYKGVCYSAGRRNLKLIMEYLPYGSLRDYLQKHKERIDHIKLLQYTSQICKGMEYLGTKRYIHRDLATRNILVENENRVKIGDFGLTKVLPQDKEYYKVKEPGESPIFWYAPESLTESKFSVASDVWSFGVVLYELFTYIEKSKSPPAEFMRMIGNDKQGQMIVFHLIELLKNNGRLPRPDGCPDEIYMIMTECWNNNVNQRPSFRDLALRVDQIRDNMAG

`COc1cc2oc(-c3ccc(O)c(O)c3)cc(=O)c2c(O)c1OC` [CIRSILIOL]: the inhibition entry in the series listed under Homo sapiens [1] was “inactive”. The inhibition result (in the series with Hep 3B2 [2]; in [3]; in the series with Hep 3B2 [5]; in [6]; with Hep 3B2 [8]; in series [11]) was “Dose-dependent effect” throughout. Besides, the inhibition entry in the series with Hep 3B2 [13] was “Dose-dependent effect”. The inhibition result (in series [4]; in series [7]; in series [10]; in the series listed under Homo sapiens [12]) was “Active” throughout. In addition, in the series with Hep 3B2 [9], the Activity entry is given as “Non-Toxic”.
